This is an account of results in PubChem BioAssay AID720588 (Broad Institute, 2013).

Activity calls are given as the source filed them.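 The calls were made as follows: active = fitted curve falls past a set limit of signal loss at no more than twice the top dose; inconclusive = flat fit between 30 and 70% signal loss, or poor fit; inactive = signal rise, flat within 30%, or crossing too high.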

The first test is described as follows: HEK293T cell cytotoxicity, dose response, cytotoxicity control, CellTiter-Glo luminescence, cherry-pick, set 3 (AID 720588). Particulars: HEK293T viability, CellTiter-Glo ATP luminescence, 72 h; at 8 µM (top of the series). On the technique in general: ATP-based viability assays read luminescence as a measure of living cells.
Take `C[C@H](CO)N1C[C@H](C)[C@H](CN(C)Cc2ccc(C(F)(F)F)cc2)Oc2ccc(NC(=O)CCCCCC(=O)Nc3ccccc3N)cc2CC1=O`: the activity change, negative = cytotoxicity was 50% (inactive).

Still in this test, the particulars now being: HEK293T viability, CellTiter-Glo ATP luminescence, 72 h; at 21 µM (top of the series).
For `COc1ccc(S(=O)(=O)Nc2cccc3c2O[C@H](CN(C)Cc2ccc(C(=O)Nc4ccccc4N)cc2)[C@H](C)CN([C@@H](C)CO)C3=O)cc1`, the activity change, negative = cytotoxicity was -18.8% (inactive).

Still in this test, the particulars now being: HEK293T viability, CellTiter-Glo ATP luminescence, 72 h; at 23.5 µM (top of the series).
As for `COC(=O)C[C@@H]1CC[C@@H]2[C@@H](COc3ccc(NC(=O)Nc4cccc(Cl)c4)cc3C(=O)N2C)O1`, the activity change, negative = cytotoxicity was 4.77% (inactive).

For the compound `COC(=O)C[C@@H]1CC[C@H]2[C@H](COc3ccc(NC(=O)Nc4ccc(C#N)cc4)cc3C(=O)N2C)O1`, the activity change, negative = cytotoxicity is 17.6% (inactive). As for `COC(=O)C[C@@H]1CC[C@@H]2[C@H](COc3ccc(NC(=O)c4cccc(Cl)c4)cc3C(=O)N2C)O1`, the activity change, negative = cytotoxicity was -19.6% (inactive).

Staying with this test, now noted: HEK293T viability, CellTiter-Glo ATP luminescence, 72 h; at 26 µM (top of the series).
Take `COc1ccc(N=C(NN)c2ccc3ccccc3n2)cc1`: the activity change, negative = cytotoxicity was -17.4% (inactive). Turning to `COC(=O)Cc1ccc(NC(=O)c2ccccc2Cl)cc1`, the activity change, negative = cytotoxicity is -2.38% (inactive). Take `COC(=O)C(CC#Cc1ccc2c(c1)[C@]1(C(=O)N2)[C@H](c2ccc(OCCO)cc2)N2[C@H](c3ccccc3)[C@H](c3ccccc3)OC(=O)[C@H]2[C@@H]1C(=O)N1CCN(c2ncccn2)CC1)C(=O)OC`: the activity change, negative = cytotoxicity was 1.09% (inactive). With `Cc1ccc(Cc2c(-c3ccco3)nc3c(C)cc(Br)cn23)cc1`, the activity change, negative = cytotoxicity is 15.5% (inactive).

Consider `Nc1ccc(Oc2ccccc2-c2ccccc2)cc1`, for which the activity change, negative = cytotoxicity was -8.94% (inactive). On the same count and under the same terms, then `Cc1ccc(NC(=O)COC(=O)c2ccc3c(c2)OCO3)cc1S(=O)(=O)N1CCCCC1`, with -15.5% (inactive); and `CCc1ccc(S(=O)(=O)c2ccc(-n3nc(C)cc3N)cc2)cc1`, with -6.44% (inactive); and `C[C@@H]1CN([C@@H](C)CO)C(=O)c2cccc(NS(=O)(=O)c3ccc(F)cc3)c2O[C@@H]1CN(C)Cc1ccc(C(=O)Nc2ccccc2N)cc1`, with -33.3% (inactive). The same measure, in the same setting: under `CC(=O)c1ccc(N=Nc2ccc(C)cc2)cc1` stands -17% (inactive); under `COC(=O)Cc1[nH]n(-c2nc3ccccc3s2)c(=O)c1C(C)=Nc1ccc(C)cc1`, -30% (inactive). For `COC(=O)C[C@H]1CC[C@H]2[C@@H](COc3ccc(NC(=O)Nc4cccc(Cl)c4)cc3C(=O)N2C)O1`, the activity change, negative = cytotoxicity was -24.3% (inactive). Same read-out and setting: under `Cc1cc(-c2nc3ccccc3s2)ccc1N` stands -28% (inactive); under `CN(C)c1ncnc2c1ccn2C1OC(CO)C(O)C1O` (stereo unspecified), -37% (inactive); under `COc1ccc(/C=C2/NC(=O)N(CC(=O)Nc3cccc(C)c3)C2=O)cc1O`, -15.3% (inactive). As to `c1cncc(-c2ccc([C@@H]3[C@H]4CNC[C@@H]3N4CC3CCOCC3)cc2)c1`, the activity change, negative = cytotoxicity was 61.9% (inactive). For `CCOC(=O)Cc1ccc(NC(=O)c2ccccc2Br)cc1`, the activity change, negative = cytotoxicity is -14.3% (inactive).

On to `C[C@@H]1CN([C@H](C)CO)C(=O)c2cc(NS(=O)(=O)c3ccc(Cl)cc3)ccc2O[C@@H]1CN(C)Cc1ccc(Cl)c(Cl)c1`, for which the activity change, negative = cytotoxicity was -9.51% (inactive).

Take `CC1(C)Oc2cc3oc(-c4cc(O)cc(O)c4)cc3cc2CC1O` (stereo unspecified): the activity change, negative = cytotoxicity is -1.31% (inactive). The same measure, in the same setting: under `O=C(CCCN1C(=O)S/C(=C\c2ccccc2)C1=O)NNC(=O)c1ccccc1O` stands -28.3% (inactive); under `CCCN(C)C[C@H]1Oc2ncc(-c3ccccc3)cc2C(=O)N([C@@H](C)CO)C[C@H]1C`, 2.32% (inactive); under `O=C(O)c1ccc2cc(-c3ccccc3)[nH]c2c1`, -28.5% (inactive). `Cc1noc(C)c1NC(=O)Nc1ccc2c(c1)CC(=O)N([C@H](C)CO)C[C@@H](C)[C@@H](CN(C)Cc1ccc(Cl)c(Cl)c1)O2`: the activity change, negative = cytotoxicity was 56.7% (inactive). On to `Cc1c(CC(=O)NCCCC(=O)O)c(=O)oc2cc3c(cc12)CCC(C)(C)O3`, for which the activity change, negative = cytotoxicity was -63.2% (inactive). For `COC(=O)C[C@@H]1CC[C@@H]2[C@H](COc3ccc(NC(=O)c4cc(F)cc(F)c4)cc3C(=O)N2C)O1`, the activity change, negative = cytotoxicity was -1.07% (inactive). Regarding `Cc1ccc(S(=O)(=O)Nc2ccc3c(c2)C(=O)N([C@@H](C)CO)C[C@@H](C)[C@H](CN(C)Cc2ccc(C(F)(F)F)cc2)OCCCC[C@H](C)O3)cc1`, the activity change, negative = cytotoxicity is -33.3% (inactive).

In the case of `COc1ccc(C(=O)OCC(=O)Nc2ccc(Cl)c(C(F)(F)F)c2)c(OC)c1OC`, the activity change, negative = cytotoxicity was 6.28% (inactive). For the compound `N#C[C@H]1[C@H](c2ccc(C#Cc3ccccc3F)cc2)[C@@H](CO)N1C(=O)C1CCOCC1`, the activity change, negative = cytotoxicity is -4.64% (inactive). As to `C#CCOCCOCCOCCNc1nc(N2CCN(C(=O)CCCCCCCCCCNC(=O)Cn3cc(C[C@@H](C)O)nn3)CC2)nc(N2CCN(C(=O)CCCCCCCCCCNC(=O)[C@H](CO)n3cc(CCCSC)nn3)CC2)n1`, the activity change, negative = cytotoxicity is 23.5% (inactive). With `COc1ccc(C(C)(O)c2nc(-c3cccc(F)c3)cs2)cc1` (stereo unspecified), the activity change, negative = cytotoxicity is -24.1% (inactive). On the same count and under the same terms, then `COc1cc(C(c2c(C)[nH][nH]c2=O)c2c(C)[nH][nH]c2=O)ccc1OC(C)C`, with -1.41% (inactive); and `Nc1sc(-c2ccccc2)cc1-c1n[nH]c(=S)n1C1CCCCC1`, with -4.9% (inactive); and `COc1ccccc1NS(=O)(=O)c1cc(NC(=O)c2cc3ccccc3oc2=O)ccc1C`, with -6.46% (inactive).

On to `CC(Oc1cccc(Cl)c1)C(=O)NCCCCc1ccccc1` (stereo unspecified), for which the activity change, negative = cytotoxicity was -2.08% (inactive). As to `O=c1c2ccccc2oc2cc(C#CC3(O)CCCCC3)ccc12`, the activity change, negative = cytotoxicity is 15.7% (inactive). Same read-out and setting: then `CC(=O)c1ccc(N(C(=O)Cn2nnc3ccccc32)C(C(=O)NCc2ccccc2)c2ccccn2)cc1` (stereo unspecified), with -21.8% (inactive). Same read-out and setting: then `CCOc1ccc(OCc2ccc(C(=O)NN=Cc3ccc[nH]3)cc2)cc1`, with -39.9% (inactive); and `CN(C)c1ccc(/C=N/Nc2nc3ccccc3o2)cc1`, with -21.5% (inactive); and `Cc1ccc2c(c1)C(=O)N1[C@H]3c4cc(Br)ccc4OC[C@@H]3[C@H](c3ccccc3)[C@]1(C)C(=O)N2`, with -13.8% (inactive). Turning to `COC(=O)COc1ccc(-c2nccc(-c3ccccn3)n2)cc1`, the activity change, negative = cytotoxicity was 19.3% (inactive). Same read-out and setting: then `CC(C)(C)C(=O)Nc1ccc(N=Nc2ccccc2)cc1`, with -5.33% (inactive).

With `COc1cc(-c2noc(C)c2C#Cc2nccn2C)cc(OC)c1OC`, the activity change, negative = cytotoxicity is -11% (inactive). Regarding `COc1cc2c(cc1NC(=O)CN(C)Cc1ccc(OC)c(OC)c1)oc1ccccc12`, the activity change, negative = cytotoxicity was -19.9% (inactive). For the compound `COC(=O)C[C@@H]1CC[C@@H]2[C@H](COc3ccc(NC(=O)c4ccc(F)c(F)c4)cc3C(=O)N2C)O1`, the activity change, negative = cytotoxicity is 16.7% (inactive). As to `CCCN1C(=O)/C(=C/c2nc3ccccc3c(=O)[nH]2)c2ccccc21`, the activity change, negative = cytotoxicity was -9.06% (inactive). As to `CCOc1ccc(-c2noc(CCC(=O)O)n2)cc1`, the activity change, negative = cytotoxicity is -18.9% (inactive). Take `C[C@H](CO)N1C[C@H](C)[C@H](CN(C)Cc2ccc(C(F)(F)F)cc2)Oc2c(NS(=O)(=O)c3ccc(Cl)cc3)cccc2C1=O`: the activity change, negative = cytotoxicity was -9.18% (inactive).

With `COc1ccc(S(=O)(=O)N2CCCc3nc(-c4ccc(F)cc4)ccc32)cc1`, the activity change, negative = cytotoxicity is -5.94% (inactive). As to `Cc1ccc(/C=C/C(=O)N2CCN(S(=O)(=O)c3c(C)c(C)cc(C)c3C)CC2)o1`, the activity change, negative = cytotoxicity was 16.1% (inactive).

For the compound `Cc1[nH]c(=S)sc1Cc1ccc(Cl)c(Cl)c1`, the activity change, negative = cytotoxicity was 20.1% (inactive). For the compound `O=C1Nc2ccccc2C1=Nc1ccccc1-c1ccccc1`, the activity change, negative = cytotoxicity is -21.1% (inactive). `O=c1cc(CN2CCN(Cc3ccccc3)CC2)c2ccc(O)c(O)c2o1`: the activity change, negative = cytotoxicity was 28.6% (inactive).

On to `O=C1c2ccc3c4c(ccc(c24)C(=O)N1c1cccc(O)c1)C(=O)N(c1cccc(O)c1)C3=O`, for which the activity change, negative = cytotoxicity was 7.85% (inactive). With `COC(=O)C[C@@H]1CC[C@@H]2[C@H](COc3ccc(NC(=O)Nc4cccc(C#N)c4)cc3C(=O)N2C)O1`, the activity change, negative = cytotoxicity is 53.6% (inactive).

Regarding `CC(=O)c1ccc(NC(=O)c2noc3c2CCC3)cc1`, the activity change, negative = cytotoxicity is -5.3% (inactive).

For `C[C@@H]1CN([C@@H](C)CO)C(=O)Cc2cc(N(C)C)ccc2O[C@@H]1CN(C)Cc1ccccc1`, the activity change, negative = cytotoxicity is -17.5% (inactive). Take `Cc1ccsc1C(=O)OCC(=O)c1cc(C)n(C)c1C`: the activity change, negative = cytotoxicity was -19.5% (inactive).

Regarding `COc1ccc(CNc2ncc(-c3ccc(F)cc3)n2C)c2ccccc12`, the activity change, negative = cytotoxicity was -13.3% (inactive). The same measure, in the same setting: under `N#CC1=C(N)Oc2cc(N)ccc2C1c1cccc(Br)c1` (stereo unspecified) stands -22.2% (inactive); under `N#C[C@H]1[C@H](c2ccc(-c3ccccc3F)cc2)[C@@H](CO)N1C(=O)c1ccccn1`, -19.7% (inactive). For the compound `COC(=O)C[C@H]1CC[C@H]2[C@H](COc3ccc(NC(=O)Nc4cccc(Cl)c4)cc3C(=O)N2C)O1`, the activity change, negative = cytotoxicity is -28.3% (inactive). As to `COC(=O)C[C@@H]1CC[C@@H]2[C@H](COc3ccc(NC(=O)c4ccccc4)cc3C(=O)N2C)O1`, the activity change, negative = cytotoxicity is 41.2% (inactive).
